Measured values: ChEMBL document CHEMBL1201862, “PubChem BioAssay data set” (2004)
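Assay format: 96-well plates, 48-hour exposure. The concentration for 50% growth inhibition is given as GI50.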 Activity calls are given as the source filed them. Cut-off read from the data, not from the text of the source: active = GI50 up to about 1.1 µM and inactive = higher.

Key:
Assay in all cases: NCI anticancer screen, dose series, 48 h
BT-549 = tested on: BT-549
LOX IMVI = tested on: LOX IMVI
M14 = tested on: M14
SNB-19 = tested on: SNB-19
HT-29 = tested on: HT-29
OVCAR-3 = tested on: OVCAR-3
SF-295 = tested on: SF-295
K562 = tested on: K562
MCF7 = tested on: MCF7
PC-3 = tested on: PC-3
CAKI-1 = tested on: CAKI-1
Hs-578T = tested on: Hs-578T
MOLT-4 = tested on: MOLT-4
A498 = tested on: A498
SK-MEL-28 = tested on: SK-MEL-28
NCI-H460 = tested on: NCI-H460
NCI-H23 = tested on: NCI-H23
RPMI-8226 = tested on: RPMI-8226
T47D = tested on: T47D
SK-MEL-5 = tested on: SK-MEL-5

Question: Which results are given for CC(=O)c1ccc2c(c1)CC1(C2)Cc2ccccc2C1=O (centres undefined)?
Answer: GI50 (BT-549): 43.4 µM (inactive); GI50 (LOX IMVI): 36.1 µM (inactive); GI50 (M14): 31 µM (inactive); GI50 (SNB-19): > 100 µM (inactive); GI50 (HT-29): 14.6 µM (inactive); GI50 (OVCAR-3): 50.9 µM (inactive); GI50 (SF-295): 56 µM (inactive); GI50 (K562): 36.1 µM (inactive); GI50 (MCF7): 26.7 µM (inactive); GI50 (PC-3): 35.2 µM (inactive); GI50 (CAKI-1): 33.1 µM (inactive); GI50 (Hs-578T): 39.8 µM (inactive); GI50 (MOLT-4): 29.6 µM (inactive); GI50 (A498): > 100 µM (inactive); GI50 (SK-MEL-28): 64.3 µM (inactive); GI50 (NCI-H460): 62.1 µM (inactive); GI50 (NCI-H23): 78.9 µM (inactive); GI50 (RPMI-8226): 33.6 µM (inactive); GI50 (T47D): 25.6 µM (inactive); GI50 (SK-MEL-5): 21.8 µM (inactive)

Question: How did the GI50 (BT-549) turn out when N=C(N)NCCCC(NC(=O)OCCCCCn1ccc(N)nc1=O)C(=O)O (centres undefined) was run?
Answer: Its GI50 is > 100 µM (inactive).

Question: And the GI50 (LOX IMVI)?
Answer: Its GI50 is > 100 µM (inactive).

Question: What about the GI50 (M14) of the same compound?
Answer: Its GI50 is > 100 µM (inactive).

Question: And the GI50 (SNB-19)?
Answer: Its GI50 is > 100 µM (inactive).

Question: What about the GI50 (HT-29) of the same compound?
Answer: Its GI50 is > 100 µM (inactive).

Question: What about the GI50 (OVCAR-3) of the same compound?
Answer: Its GI50 is > 100 µM (inactive).

Question: What about the GI50 (SF-295) of the same compound?
Answer: The GI50 was > 100 µM (inactive).

Question: And the GI50 (K562)?
Answer: Its GI50 is > 100 µM (inactive).

Question: And the GI50 (MCF7)?
Answer: The GI50 was > 100 µM (inactive).

Question: What about the GI50 (PC-3) of the same compound?
Answer: Its GI50 is > 100 µM (inactive).

Question: What about the GI50 (CAKI-1) of the same compound?
Answer: Its GI50 is > 100 µM (inactive).

Question: What about the GI50 (Hs-578T) of the same compound?
Answer: The GI50 was > 100 µM (inactive).

Question: And the GI50 (MOLT-4)?
Answer: The GI50 was > 100 µM (inactive).

Question: And the GI50 (A498)?
Answer: The GI50 was > 100 µM (inactive).

Question: What about the GI50 (SK-MEL-28) of the same compound?
Answer: The GI50 was > 100 µM (inactive).

Question: And the GI50 (NCI-H460)?
Answer: The GI50 was > 100 µM (inactive).

Question: What about the GI50 (NCI-H23) of the same compound?
Answer: The GI50 was > 100 µM (inactive).

Question: And the GI50 (RPMI-8226)?
Answer: Its GI50 is > 100 µM (inactive).

Question: And the GI50 (T47D)?
Answer: Its GI50 is > 100 µM (inactive).

Question: Which results are given for COc1ccc2o/c(=N\c3ccc(F)cc3)c(C(N)=O)cc2c1?
Answer: GI50 (BT-549): > 100 µM (inactive); GI50 (LOX IMVI): > 100 µM (inactive); GI50 (M14): > 100 µM (inactive); GI50 (SNB-19): 38.5 µM (inactive); GI50 (HT-29): > 100 µM (inactive); GI50 (OVCAR-3): 49.9 µM (inactive); GI50 (SF-295): 33.7 µM (inactive); GI50 (K562): > 100 µM (inactive); GI50 (MCF7): 56.8 µM (inactive); GI50 (PC-3): > 100 µM (inactive); GI50 (CAKI-1): 45.6 µM (inactive); GI50 (Hs-578T): 62.1 µM (inactive); GI50 (MOLT-4): > 100 µM (inactive); GI50 (A498): 20 µM (inactive); GI50 (SK-MEL-28): > 100 µM (inactive); GI50 (NCI-H460): > 100 µM (inactive); GI50 (NCI-H23): 29.3 µM (inactive); GI50 (RPMI-8226): > 100 µM (inactive); GI50 (T47D): 19.4 µM (inactive); GI50 (SK-MEL-5): > 100 µM (inactive)

Question: What does the source list for O=c1[nH]c(=O)n(C2C(CO)OC(CO)C2O)cc1F (centres undefined)?
Answer: GI50 (BT-549): > 100 µM (inactive); GI50 (LOX IMVI): > 100 µM (inactive); GI50 (M14): > 100 µM (inactive); GI50 (SNB-19): > 100 µM (inactive); GI50 (HT-29): > 100 µM (inactive); GI50 (OVCAR-3): > 100 µM (inactive); GI50 (SF-295): > 100 µM (inactive); GI50 (K562): > 100 µM (inactive); GI50 (MCF7): > 100 µM (inactive); GI50 (PC-3): > 100 µM (inactive); GI50 (CAKI-1): > 100 µM (inactive); GI50 (Hs-578T): > 100 µM (inactive); GI50 (MOLT-4): > 100 µM (inactive); GI50 (A498): > 100 µM (inactive); GI50 (SK-MEL-28): > 100 µM (inactive); GI50 (NCI-H460): > 100 µM (inactive); GI50 (NCI-H23): > 100 µM (inactive); GI50 (RPMI-8226): > 100 µM (inactive); GI50 (T47D): > 100 µM (inactive); GI50 (SK-MEL-5): > 100 µM (inactive)

Question: How did the GI50 (BT-549) turn out when Nc1nc(Cl)cc(NCCC2(CO)CCC2)n1 was run?
Answer: Its GI50 is > 100 µM (inactive).

Question: And the GI50 (LOX IMVI)?
Answer: Its GI50 is > 100 µM (inactive).

Question: What about the GI50 (M14) of the same compound?
Answer: Its GI50 is > 100 µM (inactive).

Question: What about the GI50 (SNB-19) of the same compound?
Answer: Its GI50 is > 100 µM (inactive).

Question: What about the GI50 (HT-29) of the same compound?
Answer: Its GI50 is > 100 µM (inactive).

Question: And the GI50 (OVCAR-3)?
Answer: The GI50 was > 100 µM (inactive).

Question: And the GI50 (SF-295)?
Answer: The GI50 was > 100 µM (inactive).

Question: And the GI50 (K562)?
Answer: The GI50 was > 100 µM (inactive).

Question: And the GI50 (MCF7)?
Answer: The GI50 was > 100 µM (inactive).

Question: What about the GI50 (PC-3) of the same compound?
Answer: The GI50 was > 100 µM (inactive).

Question: What about the GI50 (CAKI-1) of the same compound?
Answer: Its GI50 is > 100 µM (inactive).

Question: What about the GI50 (Hs-578T) of the same compound?
Answer: The GI50 was 45.4 µM (inactive).

Question: And the GI50 (MOLT-4)?
Answer: The GI50 was > 100 µM (inactive).

Question: And the GI50 (A498)?
Answer: The GI50 was > 100 µM (inactive).

Question: And the GI50 (SK-MEL-28)?
Answer: Its GI50 is > 100 µM (inactive).

Question: What about the GI50 (NCI-H460) of the same compound?
Answer: Its GI50 is > 100 µM (inactive).

Question: And the GI50 (NCI-H23)?
Answer: The GI50 was > 100 µM (inactive).

Question: And the GI50 (RPMI-8226)?
Answer: Its GI50 is > 100 µM (inactive).

Question: And the GI50 (T47D)?
Answer: Its GI50 is > 100 µM (inactive).

Question: And the GI50 (SK-MEL-5)?
Answer: The GI50 was > 100 µM (inactive).

Question: For Nc1nn2c(C(Br)Br)cc(C(Br)Br)nc2c1[N+](=O)[O-], which GI50 (BT-549) is on record?
Answer: Its GI50 is 0.766 µM (active).

Question: And the GI50 (LOX IMVI)?
Answer: Its GI50 is 0.269 µM (active).

Question: And the GI50 (M14)?
Answer: Its GI50 is 0.627 µM (active).

Question: What about the GI50 (SNB-19) of the same compound?
Answer: The GI50 was 1.61 µM (inactive).

Question: And the GI50 (HT-29)?
Answer: Its GI50 is 0.766 µM (active).

Question: What about the GI50 (OVCAR-3) of the same compound?
Answer: The GI50 was 0.437 µM (active).

Question: What about the GI50 (SF-295) of the same compound?
Answer: Its GI50 is 1.77 µM (inactive).

Question: What about the GI50 (K562) of the same compound?
Answer: Its GI50 is 0.248 µM (active).

Question: What about the GI50 (MCF7) of the same compound?
Answer: The GI50 was 0.826 µM (active).

Question: What about the GI50 (PC-3) of the same compound?
Answer: The GI50 was 1.36 µM (inactive).

Question: And the GI50 (CAKI-1)?
Answer: The GI50 was 0.5 µM (active).

Question: What about the GI50 (Hs-578T) of the same compound?
Answer: Its GI50 is 2.36 µM (inactive).

Question: And the GI50 (MOLT-4)?
Answer: The GI50 was 0.303 µM (active).

Question: And the GI50 (A498)?
Answer: The GI50 was 2.18 µM (inactive).

Question: And the GI50 (SK-MEL-28)?
Answer: The GI50 was 1.53 µM (inactive).

Question: What about the GI50 (NCI-H460) of the same compound?
Answer: The GI50 was 2.41 µM (inactive).

Question: What about the GI50 (NCI-H23) of the same compound?
Answer: The GI50 was 1.98 µM (inactive).

Question: And the GI50 (RPMI-8226)?
Answer: Its GI50 is 0.239 µM (active).

Question: And the GI50 (T47D)?
Answer: The GI50 was 0.667 µM (active).

Question: And the GI50 (SK-MEL-5)?
Answer: The GI50 was 1.49 µM (inactive).

Question: Which results are given for CCc1nc(N)nc(N)c1-c1ccc(NCCN)c([N+](=O)[O-])c1?
Answer: GI50 (BT-549): 36.1 µM (inactive); GI50 (LOX IMVI): 4.24 µM (inactive); GI50 (M14): 8.63 µM (inactive); GI50 (SNB-19): 24.7 µM (inactive); GI50 (HT-29): 6.11 µM (inactive); GI50 (OVCAR-3): 21.8 µM (inactive); GI50 (SF-295): 11.3 µM (inactive); GI50 (K562): 1.09 µM (active); GI50 (MCF7): 10.2 µM (inactive); GI50 (PC-3): 6.53 µM (inactive); GI50 (CAKI-1): 53.1 µM (inactive); GI50 (Hs-578T): 89.1 µM (inactive); GI50 (MOLT-4): 7.16 µM (inactive); GI50 (A498): 17.7 µM (inactive); GI50 (SK-MEL-28): > 59.3 µM (inactive); GI50 (NCI-H460): 2.75 µM (inactive); GI50 (NCI-H23): 7.4 µM (inactive); GI50 (RPMI-8226): 29.6 µM (inactive); GI50 (T47D): 33.6 µM (inactive); GI50 (SK-MEL-5): 9.79 µM (inactive)
